Converted amounts (≈) assume the structure as drawn.

Some test systems named below: Bacillus cereus IFO 3457; Escherichia coli CE273; Escherichia coli CR3; Escherichia coli E44813; Pasteurella multocida; Proteus vulgaris.
Holding throughout (test): ≥ marks a high value that may be exact or a test limit, other limits are often not marked, values filed in µg/mL are converted to µM
Assay [1] deals with Bacillus subtilis ATCC 6633.
The subject of assay [2] is Bacillus subtilis IFO 13722.
The test system of assay [3] is Escherichia coli ATCC 39188.
In assay [4] the test system is Escherichia coli JCM 1649.
The test system of assay [5] is Escherichia coli NIHJ JC-2.
In assay [6] the test system is Salmonella enterica subsp. enterica serovar Enteritidis ATCC 1891.
Assay [7] relates to Salmonella enterica subsp. enterica serovar Typhimurium ATCC 14028.
Assay [8] relates to Staphylococcus aureus FDA 209P JC-1.
Assay [9] deals with Staphylococcus aureus IFO 13276.
The subject of assay [10] is Staphylococcus aureus JCM 2431.
The subject of assay [11] is Staphylococcus aureus Smith.
Assay [12] relates to Vibrio parahaemolyticus IFO12711.
Assay [13] concerns Bacillus subtilis KCTC 1918.
The test system of assay [14] is Candida albicans TIMM 1768.
In assay [15] the test system is Proteus vulgaris KCTC 2433.
Assay [16] has as its system Saccharomyces cerevisiae KCTC 7296.
Assay [17] has as its system Salmonella typhimurium KCTC 1926.
Assay [18] deals with Staphylococcus aureus KCTC 1621.
Assay [19] relates to Trichosporon beigelii KCTC 7707.
Assay [20] concerns Candida albicans ATCC 18804.
Assay [21] deals with Escherichia coli ATCC 25922.
The test system of assay [22] is Staphylococcus aureus ATCC 25923.
Assay [23] deals with Bacillus subtilis CICC 24434.
Assay [24] deals with Escherichia coli ATCC 12795.
The subject of assay [25] is Escherichia coli CCARM 1229.
In assay [26] the test system is Escherichia coli CCARM 1238.
Assay [27] concerns Escherichia coli KCTC 1682.
Assay [28] relates to Listeria monocytogenes CICC 21533.
Assay [29] relates to Pasteurella multocida C48-3.
Assay [30] concerns Pseudomonas aeruginosa ATCC 15692.
Assay [31] relates to Pseudomonas aeruginosa KCTC 1637.
Assay [32] concerns Salmonella enterica subsp. enterica serovar Choleraesuis C78-1.
Assay [33] relates to Salmonella typhimurium CCARM 8009.
In assay [34] the test system is Salmonella typhimurium CCARM 8013.
For assay [35], the system named is Salmonella typhimurium SL1344.
Assay [36] deals with Staphylococcus epidermidis LY8.
For assay [37], the system named is Streptococcus pyogenes KCTC 3096.
The test system of assay [38] is Bacillus megaterium KCTC 1096.

On to `CC[C@H](C)[C@H](NC(=O)CNC(=O)[C@H](CCCCN)NC(=O)[C@H](Cc1c[nH]c2ccccc12)NC(=O)[C@H](CC(N)=O)NC(=O)[C@@H](N)CCCCN)C(=O)N[C@@H](C)C(=O)NCC(=O)N[C@@H](CCSC)C(=O)N[C@@H](C)C(=O)N[C@@H](CCCCN)C(=O)N[C@@H](CCCCN)C(=O)N[C@@H](CC(C)C)C(=O)N[C@@H](CC(C)C)C(=O)NCC(=O)N[C@@H](CCCCN)C(=O)N[C@@H](CC(N)=O)C(=O)N[C@@H](Cc1c[nH]c2ccccc12)C(=O)N[C@@H](CCCCN)C(=O)N[C@@H](CC(C)C)C(=O)N[C@@H](CCSC)C(=O)O` [KNWKGIAGMAKKLLGKNWKLM], for which the MIC – broadly, the lowest concentration that inhibits growth of the organism – in the assay on Bacillus cereus IFO 3457 was determined as 3.1 µM (≈ 7.49 µg/mL); in assay [1] it was 3.1 µM (≈ 7.49 µg/mL); in [2] it was 6.3 µM (≈ 15.2 µg/mL); in assay [3], 3.1 µM (≈ 7.49 µg/mL); against Escherichia coli CE273, 3.1 µM (≈ 7.49 µg/mL); against Escherichia coli CR3, 6.3 µM (≈ 15.2 µg/mL). The MIC in [4] came to 6.3 µM (≈ 15.2 µg/mL); in [5] it was 3.1 µM (≈ 7.49 µg/mL); in [6] it was 6.3 µM (≈ 15.2 µg/mL); in [7] it was 6.3 µM (≈ 15.2 µg/mL); in assay [8], 1.6 µM (≈ 3.87 µg/mL); in assay [9], 25 µM (≈ 60.4 µg/mL). Further, the MIC in [10] is 12.5 µM (≈ 30.2 µg/mL); in [11], 6.3 µM (≈ 15.2 µg/mL); in assay [12], not below 50 µM.

With `CC[C@H](C)[C@H](NC(=O)CNC(=O)[C@H](CC(C)C)NC(=O)[C@H](CCCN=C(N)N)NC(=O)[C@H](CCCCN)NC(=O)[C@H](Cc1ccccc1)NC(=O)[C@@H](NC(=O)[C@H](CCCCN)NC(=O)[C@H](CCCCN)NC(=O)[C@H](C)N)C(C)C)C(=O)NCC(=O)N[C@@H](C)C(=O)N[C@H](C(=O)N[C@@H](CC(C)C)C(=O)N[C@@H](CCCCN)C(=O)N[C@H](C(=O)N[C@@H](CC(C)C)C(=O)N[C@H](C(=O)N[C@@H](Cc1c[nH]c2ccccc12)C(=O)NCC(=O)O)[C@@H](C)O)C(C)C)C(C)C` [AKKVFKRLGIGAVLKVLTWG], the MIC was 0.78 µM (≈ 1.7 µg/mL) in [13]; not below 50 µM in assay [14]; 0.78 µM (≈ 1.7 µg/mL) in assay [15]; 17.7 µM (≈ 38.6 µg/mL) in assay [16]; 0.39 µM (≈ 0.852 µg/mL) in assay [17]; 0.78 µM (≈ 1.7 µg/mL) in [18]. In assay [19], this compound displayed an MIC not below 35.4 µM.

With `CC[C@H](C)[C@H](NC(=O)[C@H](C)NC(=O)[C@H](CCC(=O)O)NC(=O)[C@H](CO)NC(=O)[C@@H](N)Cc1ccccc1)C(=O)N[C@@H](CCCCN)C(=O)N[C@@H](CCCCN)C(=O)N[C@H](C(=O)N[C@H](C(=O)N[C@@H](CC(=O)O)C(=O)N[C@@H](Cc1ccccc1)C(=O)N[C@@H](CC(C)C)C(=O)NCC(=O)N[C@@H](CCC(=O)O)C(=O)NCC(=O)N[C@@H](CC(C)C)C(=O)N[C@@H](Cc1ccccc1)C(=O)N[C@@H](CC(=O)O)C(=O)N[C@H](C(=O)N[C@H](C(=O)N[C@@H](CCCCN)C(=O)N[C@@H](CCCCN)C(=O)N[C@H](C(=O)N[C@@H](C)C(=O)N[C@@H](CCC(=O)O)C(=O)N[C@@H](CO)C(=O)N[C@@H](Cc1ccccc1)C(=O)O)[C@@H](C)CC)[C@@H](C)CC)[C@@H](C)CC)[C@@H](C)CC)[C@@H](C)CC` [FSEAIKKIIDFLGEGLFDIIKKIAESF], the MIC was not below 128 µM in assay [20], 128 µM (≈ 393 µg/mL) in assay [21] and more than 128 µM in [22].

For `CC[C@H](C)[C@H](NC(=O)[C@@H](NC(=O)[C@@H](N)CCCN=C(N)N)[C@@H](C)CC)C(=O)N[C@@H](CC(=O)O)C(=O)N[C@@H](CC(C)C)C(=O)N[C@@H](CC(C)C)C(=O)N[C@@H](Cc1c[nH]c2ccccc12)C(=O)N[C@@H](CCCN=C(N)N)C(=O)N[C@H](C(=O)N[C@@H](CCCN=C(N)N)C(=O)N[C@@H](CCCN=C(N)N)C(=O)N1CCC[C@H]1C(=O)N[C@@H](CCC(N)=O)C(=O)N[C@@H](CCCCN)C(=O)N1CCC[C@H]1C(=O)N[C@@H](CCCCN)C(=O)N[C@@H](Cc1ccccc1)C(=O)N[C@H](C(=O)N[C@H](C(=O)N[C@H](C(=O)N[C@@H](Cc1c[nH]c2ccccc12)C(=O)N[C@H](C(=O)N[C@@H](CCCN=C(N)N)C(=O)O)C(C)C)C(C)C)[C@@H](C)O)C(C)C)C(C)C` [RIIDLLWRVRRPQKPKFVTVWVR], the MIC in assay [23] turned out to be 0.527 µM (≈ 1.56 µg/mL); in [13], 1.56 µM (≈ 4.62 µg/mL); in assay [24] it was 0.4 µM (≈ 1.19 µg/mL); in [21] it was 4 µM (≈ 11.9 µg/mL); in assay [25], 4 µM (≈ 11.9 µg/mL); in [26], 2 µM (≈ 5.93 µg/mL). Also, the MIC in the assay with Escherichia coli E44813 was 8.44 µM (≈ 25 µg/mL); in [27] it was 1.56 µM (≈ 4.62 µg/mL); in assay [28], not below 42.2 µM; in assay [29] it was 1.05 µM (≈ 3.12 µg/mL); in the assay with Pasteurella multocida, 6.8 µM (≈ 20.1 µg/mL); in assay [15], 16 µM (≈ 47.4 µg/mL). Moreover, the MIC worked out at 8 µM (≈ 23.7 µg/mL) in assay [30]; 1.56 µM (≈ 4.62 µg/mL) in assay [31]; 0.527 µM (≈ 1.56 µg/mL) in assay [32]; 4 µM (≈ 11.9 µg/mL) in [33]; 4 µM (≈ 11.9 µg/mL) in assay [34]; 1.77 µM (≈ 5.23 µg/mL) in assay [17]. The MIC in assay [35] was 1.05 µM (≈ 3.12 µg/mL); in assay [22] it was 0.0165 µM (≈ 0.0489 µg/mL); in assay [18] it was 3.12 µM (≈ 9.26 µg/mL); in [36] it was 8.44 µM (≈ 25 µg/mL); in assay [37], 1.56 µM (≈ 4.62 µg/mL).

For `CC[C@H](C)[C@H](NC(=O)[C@H](CCCCN)NC(=O)[C@H](CCCCN)NC(=O)[C@H](Cc1ccccc1)NC(=O)[C@H](CC(C)C)NC(=O)[C@H](CCCCN)NC(=O)[C@H](Cc1c[nH]c2ccccc12)NC(=O)[C@@H](N)CCCCN)C(=O)N1CCC[C@H]1C(=O)N[C@@H](CC(C)C)C(=O)N[C@@H](CCCCN)C(=O)N[C@@H](CCCCN)C(=O)N[C@@H](Cc1ccccc1)C(N)=O` [KWKLFKKIPLKKF], the MIC in [38] worked out at 3.12 µM (≈ 5.32 µg/mL); in assay [13] it was 1.56 µM (≈ 2.66 µg/mL); in assay [27], 12.5 µM (≈ 21.3 µg/mL); in the assay with Proteus vulgaris, 3.12 µM (≈ 5.32 µg/mL); in assay [31], 12.5 µM (≈ 21.3 µg/mL); in assay [18], 12.5 µM (≈ 21.3 µg/mL).
